From patent publication EP4692071A1, “PHOTOCHROMIC COMPOUND, NAPHTHOL DERIVATIVE, CURABLE COMPOSITION, OPTICAL ARTICLE, LENS, AND EYEGLASS” (TOKUYAMA CORPORATION, priority 2023, dated 2024)
“And” between values parts separate entries of the source, which are not always exact repeats. Equal entries are not always repeated.

experiment: Maximum absorption wavelength (λmax) after color development, spectrophotometer MCPD3000; assay type: physicochemical; settings: photochromic laminate by coating method, 40 µm photochromic layer on thiourethane lens, 0.25 mmol compound per 100 g monomers
In short: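 Read-out: absorbance at λmax, multichannel photodetector spectrophotometer. Colour density = ε(240) − ε(0), 240 s light, 23°C. τ1/2 = time for ε(240) − ε(0) to halve after light off. Residual rate compares density before and after 90 h xenon weathering.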

Structure (SMILES)	Maximum absorption wavelength (nm)
CCCC1(CCC)c2cc(C)ccc2-c2c1c1c(c3cc(OC)c(N(C)c4ccccc4)cc23)OC(c2ccc(OC)cc2)(c2ccc(OC)cc2)C=C1 [Example 18 Formula (81)]	493 nm
COCCCCC1(CCCCOC)c2ccccc2-c2c1c1c(c3cc(C)c(N(C)c4ccccc4)cc23)OC(c2ccc(C)cc2)(c2ccc(OC)cc2)C=C1 (stereo not drawn) [Example 5 Formula (43)]	442 nm
CCCC1(CCC)c2ccccc2-c2c1c1c(c3cc(OC)c(N(C)c4ccccc4)cc23)OC(c2ccc(OC)cc2)(c2ccc(N(c3ccccc3)c3ccccc3)cc2)C=C1 (stereo not drawn) [Example 21 Formula (87)]	524 nm
CCCCN(c1ccc(C(F)(F)F)cc1)c1cc2c3c(c4c(c2cc1OC)OC(c1ccc(C)cc1)(c1ccc(OC)cc1)C=C4)C1(CCCCCCCCCCC1)c1cc(OC)ccc1-3 (stereo not drawn) [Example 54 Formula (123)]	453 nm and 583 nm
COCCCC1(CCCOC)c2cc(Sc3c(C)cccc3C)ccc2-c2c1c1c(c3cc(OC)c(N(CCOC)c4ccc(C(F)(F)F)cc4)cc23)OC(c2ccc(OC)cc2)(c2ccc(OC)cc2)C=C1 [Example 57 Formula (132)]	468 nm and 597 nm
CCCCN(c1ccccc1)c1cc2c3c(c4c(c2cc1OC)OC(c1ccc(OC)cc1)(c1ccc(OCCC)cc1)C=C4)C(CC)(CC)c1cc(OC(F)(F)F)ccc1-3 (stereo not drawn) [Example 51 Formula (117)]	501 nm

experiment: 23°C color optical density (A23): absorbancy difference ε(240)-ε(0) after 240 s light irradiation at 23°C; assay type: physicochemical; settings: photochromic laminate by coating method, 240 s irradiation, at the maximum absorption wavelength
In short: (§1)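 Photochromic plastic lens samples were irradiated for 240 s at 23°C, and colour density was taken as the absorbance change at the absorption maximum. Fading half-life was timed from the end of irradiation until that absorbance change fell by half. Durability compared colour density before and after xenon-lamp ageing.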

Structure (SMILES)	A23 (-)
CCCC1(CCC)c2cc(C)ccc2-c2c1c1c(c3cc(OC)c(N(C)c4ccccc4)cc23)OC(c2ccc(OC)cc2)(c2ccc(OC)cc2)C=C1 [Example 18 Formula (81)]	1.25 -
COCCCCC1(CCCCOC)c2ccccc2-c2c1c1c(c3cc(C)c(N(C)c4ccccc4)cc23)OC(c2ccc(C)cc2)(c2ccc(OC)cc2)C=C1 (stereo not drawn) [Example 5 Formula (43)]	1.19 -
CCCC1(CCC)c2ccccc2-c2c1c1c(c3cc(OC)c(N(C)c4ccccc4)cc23)OC(c2ccc(OC)cc2)(c2ccc(N(c3ccccc3)c3ccccc3)cc2)C=C1 (stereo not drawn) [Example 21 Formula (87)]	1.26 -
CCCCN(c1ccc(C(F)(F)F)cc1)c1cc2c3c(c4c(c2cc1OC)OC(c1ccc(C)cc1)(c1ccc(OC)cc1)C=C4)C1(CCCCCCCCCCC1)c1cc(OC)ccc1-3 (stereo not drawn) [Example 54 Formula (123)]	0.82 - and 1.08 -
COCCCC1(CCCOC)c2cc(Sc3c(C)cccc3C)ccc2-c2c1c1c(c3cc(OC)c(N(CCOC)c4ccc(C(F)(F)F)cc4)cc23)OC(c2ccc(OC)cc2)(c2ccc(OC)cc2)C=C1 [Example 57 Formula (132)]	0.66 - and 0.71 -
CCCCN(c1ccccc1)c1cc2c3c(c4c(c2cc1OC)OC(c1ccc(OC)cc1)(c1ccc(OCCC)cc1)C=C4)C(CC)(CC)c1cc(OC(F)(F)F)ccc1-3 (stereo not drawn) [Example 51 Formula (117)]	0.98 -

experiment: 35°C color optical density (A35): absorbancy difference ε(240)-ε(0) after 240 s light irradiation at 35°C; assay type: physicochemical; settings: photochromic laminate by coating method, 240 s irradiation
In short: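 Color optical density at 35°C (A35) came from light exposure of the sample at 35°C lasting 240 seconds. At the first and second absorption wavelengths, the absorbancy before irradiation, ε(0), was subtracted from the absorbancy measured after irradiation, ε(240). This difference was taken as the measure of color optical density.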

Structure (SMILES)	A35 (-)
CCCC1(CCC)c2cc(C)ccc2-c2c1c1c(c3cc(OC)c(N(C)c4ccccc4)cc23)OC(c2ccc(OC)cc2)(c2ccc(OC)cc2)C=C1 [Example 18 Formula (81)]	0.88 -
COCCCCC1(CCCCOC)c2ccccc2-c2c1c1c(c3cc(C)c(N(C)c4ccccc4)cc23)OC(c2ccc(C)cc2)(c2ccc(OC)cc2)C=C1 (stereo not drawn) [Example 5 Formula (43)]	0.79 -
CCCC1(CCC)c2ccccc2-c2c1c1c(c3cc(OC)c(N(C)c4ccccc4)cc23)OC(c2ccc(OC)cc2)(c2ccc(N(c3ccccc3)c3ccccc3)cc2)C=C1 (stereo not drawn) [Example 21 Formula (87)]	0.87 -
CCCCN(c1ccc(C(F)(F)F)cc1)c1cc2c3c(c4c(c2cc1OC)OC(c1ccc(C)cc1)(c1ccc(OC)cc1)C=C4)C1(CCCCCCCCCCC1)c1cc(OC)ccc1-3 (stereo not drawn) [Example 54 Formula (123)]	0.60 - and 0.80 -
COCCCC1(CCCOC)c2cc(Sc3c(C)cccc3C)ccc2-c2c1c1c(c3cc(OC)c(N(CCOC)c4ccc(C(F)(F)F)cc4)cc23)OC(c2ccc(OC)cc2)(c2ccc(OC)cc2)C=C1 [Example 57 Formula (132)]	0.44 - and 0.48 -
CCCCN(c1ccccc1)c1cc2c3c(c4c(c2cc1OC)OC(c1ccc(OC)cc1)(c1ccc(OCCC)cc1)C=C4)C(CC)(CC)c1cc(OC(F)(F)F)ccc1-3 (stereo not drawn) [Example 51 Formula (117)]	0.61 -

experiment: High-temperature color development rate (A35/A23×100), temperature dependency; assay type: physicochemical; settings: photochromic laminate by coating method
In short: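 The sample was irradiated with light for 240 seconds at 23°C and separately at 35°C. The gain in absorbance over the unirradiated state, ε(240)−ε(0), gave the color optical densities A23 and A35. A35 divided by A23, multiplied by 100, expressed how well color development holds up at the higher temperature.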

Structure (SMILES)	A35/A23 *100 (%)
CCCC1(CCC)c2cc(C)ccc2-c2c1c1c(c3cc(OC)c(N(C)c4ccccc4)cc23)OC(c2ccc(OC)cc2)(c2ccc(OC)cc2)C=C1 [Example 18 Formula (81)]	70%
COCCCCC1(CCCCOC)c2ccccc2-c2c1c1c(c3cc(C)c(N(C)c4ccccc4)cc23)OC(c2ccc(C)cc2)(c2ccc(OC)cc2)C=C1 (stereo not drawn) [Example 5 Formula (43)]	66%
CCCC1(CCC)c2ccccc2-c2c1c1c(c3cc(OC)c(N(C)c4ccccc4)cc23)OC(c2ccc(OC)cc2)(c2ccc(N(c3ccccc3)c3ccccc3)cc2)C=C1 (stereo not drawn) [Example 21 Formula (87)]	69%
CCCCN(c1ccc(C(F)(F)F)cc1)c1cc2c3c(c4c(c2cc1OC)OC(c1ccc(C)cc1)(c1ccc(OC)cc1)C=C4)C1(CCCCCCCCCCC1)c1cc(OC)ccc1-3 (stereo not drawn) [Example 54 Formula (123)]	74%
COCCCC1(CCCOC)c2cc(Sc3c(C)cccc3C)ccc2-c2c1c1c(c3cc(OC)c(N(CCOC)c4ccc(C(F)(F)F)cc4)cc23)OC(c2ccc(OC)cc2)(c2ccc(OC)cc2)C=C1 [Example 57 Formula (132)]	67% and 68%
CCCCN(c1ccccc1)c1cc2c3c(c4c(c2cc1OC)OC(c1ccc(OC)cc1)(c1ccc(OCCC)cc1)C=C4)C(CC)(CC)c1cc(OC(F)(F)F)ccc1-3 (stereo not drawn) [Example 51 Formula (117)]	62%

experiment: 23°C color fading half-life τ1/2 after 240 s light irradiation; assay type: physicochemical; settings: not given
Method: • [1] Maximum Absorption Wavelength (λmax): The maximum absorption wavelength after color development, measured using a spectrophotometer (instantaneous multichannel photodetector MCPD3000) manufactured by Otsuka Electronics Co., Ltd. was used as an indicator for the color tone during the color development. • [2] 23°C Color Optical Density (A23): A difference between an absorbancy measured after light irradiation at 23°C for 240 seconds {ε(240)} and an absorbancy without light irradiation ε(0) at the maximum absorption wavelength was used as an indicator for the color optical density. […] 35°C Color Optical Density (A35): A difference between an absorbancy measured after light irradiation at 35°C for 240 seconds {ε(240)} and an absorbancy without light irradiation ε(0) at the first and second absorption wavelengths was used as an indicator for the color optical density. […] 23°C color fading half-life [τ1/2 (sec.)]: A time required for the absorbancy of the sample at the maximum absorption wavelength to decrease to 1/2 of {ε(240)-ε(0)} when the light irradiation is terminated after the light irradiation at 23°C for 240 seconds, was used as an indicator for the color fading speed. The shorter this time, the higher the color fading speed. • [6] Residual rate (A90/A0×100): The obtained photochromic plastic lens was subjected to accelerated deterioration using a xenon weather meter X25 manufactured by Suga Test Instruments Co., Ltd. for 90 hours. Subsequently, the color optical density was evaluated before and after the test, then a color optical density before the test (A0) and a color optical density after the test (A90) were measured, and a ratio (A90/A0) was defined as a residual rate. The residual rate was used as an indicator for a color developing durability. The higher the residual rate, the higher the color developing durability.

Structure (SMILES)	23°C color fading half-life
CCCC1(CCC)c2cc(C)ccc2-c2c1c1c(c3cc(OC)c(N(C)c4ccccc4)cc23)OC(c2ccc(OC)cc2)(c2ccc(OC)cc2)C=C1 [Example 18 Formula (81)]	1.63 min
COCCCCC1(CCCCOC)c2ccccc2-c2c1c1c(c3cc(C)c(N(C)c4ccccc4)cc23)OC(c2ccc(C)cc2)(c2ccc(OC)cc2)C=C1 (stereo not drawn) [Example 5 Formula (43)]	1.5 min
CCCC1(CCC)c2ccccc2-c2c1c1c(c3cc(OC)c(N(C)c4ccccc4)cc23)OC(c2ccc(OC)cc2)(c2ccc(N(c3ccccc3)c3ccccc3)cc2)C=C1 (stereo not drawn) [Example 21 Formula (87)]	1.62 min
CCCCN(c1ccc(C(F)(F)F)cc1)c1cc2c3c(c4c(c2cc1OC)OC(c1ccc(C)cc1)(c1ccc(OC)cc1)C=C4)C1(CCCCCCCCCCC1)c1cc(OC)ccc1-3 (stereo not drawn) [Example 54 Formula (123)]	2.92 min
COCCCC1(CCCOC)c2cc(Sc3c(C)cccc3C)ccc2-c2c1c1c(c3cc(OC)c(N(CCOC)c4ccc(C(F)(F)F)cc4)cc23)OC(c2ccc(OC)cc2)(c2ccc(OC)cc2)C=C1 [Example 57 Formula (132)]	0.783 min
CCCCN(c1ccccc1)c1cc2c3c(c4c(c2cc1OC)OC(c1ccc(OC)cc1)(c1ccc(OCCC)cc1)C=C4)C(CC)(CC)c1cc(OC(F)(F)F)ccc1-3 (stereo not drawn) [Example 51 Formula (117)]	0.633 min

experiment: Residual rate (A90/A0×100) after 90 h accelerated deterioration in xenon weather meter X25, color developing durability; assay type: physicochemical; settings: photochromic laminate by coating method; xenon weather meter 90 hours
In short: as §1

Structure (SMILES)	Residual rate (%)
CCCC1(CCC)c2cc(C)ccc2-c2c1c1c(c3cc(OC)c(N(C)c4ccccc4)cc23)OC(c2ccc(OC)cc2)(c2ccc(OC)cc2)C=C1 [Example 18 Formula (81)]	78%
COCCCCC1(CCCCOC)c2ccccc2-c2c1c1c(c3cc(C)c(N(C)c4ccccc4)cc23)OC(c2ccc(C)cc2)(c2ccc(OC)cc2)C=C1 (stereo not drawn) [Example 5 Formula (43)]	73%
CCCC1(CCC)c2ccccc2-c2c1c1c(c3cc(OC)c(N(C)c4ccccc4)cc23)OC(c2ccc(OC)cc2)(c2ccc(N(c3ccccc3)c3ccccc3)cc2)C=C1 (stereo not drawn) [Example 21 Formula (87)]	80%
CCCCN(c1ccc(C(F)(F)F)cc1)c1cc2c3c(c4c(c2cc1OC)OC(c1ccc(C)cc1)(c1ccc(OC)cc1)C=C4)C1(CCCCCCCCCCC1)c1cc(OC)ccc1-3 (stereo not drawn) [Example 54 Formula (123)]	78%
COCCCC1(CCCOC)c2cc(Sc3c(C)cccc3C)ccc2-c2c1c1c(c3cc(OC)c(N(CCOC)c4ccc(C(F)(F)F)cc4)cc23)OC(c2ccc(OC)cc2)(c2ccc(OC)cc2)C=C1 [Example 57 Formula (132)]	77%
CCCCN(c1ccccc1)c1cc2c3c(c4c(c2cc1OC)OC(c1ccc(OC)cc1)(c1ccc(OCCC)cc1)C=C4)C(CC)(CC)c1cc(OC(F)(F)F)ccc1-3 (stereo not drawn) [Example 51 Formula (117)]	75%
